Reference: ChEMBL document CHEMBL5543106, “Fragment growth-based discovery of novel TNIK inhibitors for the treatment of colorectal cancer” (Eur J Med Chem, 2024)

Experiments:
Format in all cases: ADME, organism-based
[1] = AUC(0 to t) in BALB/c mouse at 5 mg/kg, iv measured upto 24 hrs by LC-MS/MS analysis; details: in vivo
[2] = Tmax in BALB/c mouse at 5 mg/kg, iv measured upto 24 hrs by LC-MS/MS analysis; details: in vivo
[3] = Cmax in BALB/c mouse at 5 mg/kg, iv measured upto 24 hrs by LC-MS/MS analysis; details: in vivo
[4] = MRT(0 to t) in BALB/c mouse at 5 mg/kg, iv measured upto 24 hrs by LC-MS/MS analysis; details: in vivo
[5] = Apparent volume of distribution in BALB/c mouse at 5 mg/kg, iv measured upto 24 hrs by LC-MS/MS analysis; details: in vivo, read-out: Vz
[6] = Bioavailability in BALB/c mouse at 5 mg/kg, iv measured upto 24 hrs by LC-MS/MS analysis; details: in vivo
[7] = AUC(0 to t) in BALB/c mouse at 10 mg/kg, po measured upto 24 hrs by LC-MS/MS analysis; details: in vivo
[8] = Tmax in BALB/c mouse at 10 mg/kg, po measured upto 24 hrs by LC-MS/MS analysis; details: in vivo
[9] = Cmax in BALB/c mouse at 10 mg/kg, po measured upto 24 hrs by LC-MS/MS analysis; details: in vivo
[10] = MRT(0 to t) in BALB/c mouse at 10 mg/kg, po measured upto 24 hrs by LC-MS/MS analysis; details: in vivo
[11] = Apparent volume of distribution in BALB/c mouse at 10 mg/kg, po measured upto 24 hrs by LC-MS/MS analysis; details: in vivo

AUC(0-t) at 24 h [1]: 27000 ng·h/mL
Tmax [2]: 4.98 min
Cmax [3]: 6340 ng/mL
MRT last at 24 h [4]: 4.46 h
Vd [5]: 0.846 L/kg
bioavailability [6]: 84.6%
AUC(0-t) at 24 h [7]: 45700 ng·h/mL
Tmax [8]: 1.17 h
Cmax [9]: 5250 ng/mL
MRT last at 24 h [10]: 6.11 h
Vz [11]: 1.41 L/kg
Compound: Cn1cnc(-c2ccc(F)cc2)c1-c1ccc2ncc(C#CC(C)(C)O)cc2c1
